Legend:
Format in all cases: in vivo, human
[1] = Part B: safety and tolerability (adverse events, CTCAE v4.0) of AZD5363 tablet, fasted versus fed
Protocol: Patients had been fasting overnight prior to the breakfast and no further food was permitted for 4 h post-dose.
Safety assessments throughout the study encompassed the incidence and severity of AEs (graded according to Common Terminology Criteria for Adverse Events [CTCAE] version 4.0), in addition to laboratory parameters (haematology, clinical chemistry, urinalysis), physical examination, 12-lead electrocardiography (ECG), and vital signs. To assess safety in the fed versus fasted state, the period during and just after the fasted day was considered relevant to the fasted dose (Days 4–7), and similarly, the fed day and subsequent days were considered relevant to the fed state (Days 11–14). Any AE occurring after the first dose of study treatment and up to 28 days after the last dose of study treatment was included in the AE summaries.
The safety analysis set comprised all patients who received at least one dose of AZD5363. All safety data are presented descriptively.

[2] = Part A: safety and tolerability (adverse events, CTCAE v4.0) of AZD5363 tablet and capsule
Protocol: PK parameters were assessed on the fourth day of Week 1 and Week 2 (i.e. on Day 4 and Day 11). […] Any AE occurring after the first dose of study treatment and up to 28 days after the last dose of study treatment was included in the AE summaries. The safety analysis set comprised all patients who received at least one dose of AZD5363. All safety data are presented descriptively.

[3] = Part A: steady-state PK of AZD5363 tablet versus capsule, partially fasted, in patients with advanced solid malignancies
Protocol: PK parameters were assessed on the fourth day of Week 1 and Week 2 (i.e. on Day 4 and Day 11). […] In addition, pre-dose samples were drawn on Day 8 in Part B to verify that a washout period of 3.5 days was adequate for AZD5363. […] Following the addition of internal standard ([^13C6]AZ12886380), calibration, quality control (QC) and study samples (25 µL) were processed by solid-phase extraction then assayed for AZD5363 by liquid chromatography–tandem mass spectrometry. […] All trial samples were analysed within the known stability period for AZD5363 and all a priori assay acceptance criteria were met, in accordance with regulatory guidance. […] PK parameters were derived using non-compartmental methods (Phoenix® WinNonlin®). Plasma concentration–time profiles were analysed to determine Cmax, Cmin and tmax, while AUCτ was determined from application of the linear-up/log-down trapezoidal rule. […] The statistical analysis for estimating the food and capsule effect was based on analysing log-transformed PK parameters AUCτ and Cmax using a fixed-effects model with terms for patient and treatment only. […] Other PK parameters are presented descriptively.

[4] = tablet, Days 4–7, fasted dose, N = 12
[5] = tablet, Days 11–14, fed dose, N = 10

4-amino-N-[(1S)-1-(4-chlorophenyl)-3-hydroxypropyl]-1-(7H-pyrrolo[2,3-d]pyrimidin-4-yl)piperidine-4-carboxamide [AZD5363]
Any AE (irrespective of causality), Grade ≥ 3 [1, 4]: 2 (16.7) Number of patients (%)
Diarrhoea, All [1, 4]: 2 (16.7) Number of patients (%)
Diarrhoea, Grade ≥ 3 [1, 4]: 1 (8.3) Number of patients (%)
Hyperglycaemia, All [1, 4]: 1 (8.3) Number of patients (%)
Hyperglycaemia, Grade ≥ 3 [1, 4]: 1 (8.3) Number of patients (%)
Hypokalaemia, All [1, 4]: 0 Number of patients (%)
Hypokalaemia, Grade ≥ 3 [1, 4]: 0 Number of patients (%)
Pneumonia, All [1, 4]: 0 Number of patients (%)
Pneumonia, Grade ≥ 3 [1, 4]: 0 Number of patients (%)
Rash macular, All [1, 4]: 0 Number of patients (%)
Rash macular, Grade ≥ 3 [1, 4]: 0 Number of patients (%)
Rash maculopapular, All [1, 4]: 1 (8.3) Number of patients (%)
Rash maculopapular, Grade ≥ 3 [1, 4]: 0 Number of patients (%)
Rash papular, All [1, 4]: 0 Number of patients (%)
Rash papular, Grade ≥ 3 [1, 4]: 0 Number of patients (%)
Skin discolouration, All [1, 4]: 0 Number of patients (%)
Skin discolouration, Grade ≥ 3 [1, 4]: 0 Number of patients (%)
Abdominal pain, All [1, 5]: 0 Number of patients (%)
Abdominal pain, Grade ≥ 3 [1, 5]: 0 Number of patients (%)
Anaemia, All [1, 5]: 1 (10.0) Number of patients (%)
Anaemia, Grade ≥ 3 [1, 5]: 0 Number of patients (%)
Any AE (causally related), All [1, 5]: 5 (50.0) Number of patients (%)
Any AE (causally related), Grade ≥ 3 [1, 5]: 4 (40.0) Number of patients (%)
Any AE (irrespective of causality), All [1, 5]: 6 (60.0) Number of patients (%)
Any AE (irrespective of causality), Grade ≥ 3 [1, 5]: 4 (40.0) Number of patients (%)
Diarrhoea, All [1, 5]: 3 (30.0) Number of patients (%)
Diarrhoea, Grade ≥ 3 [1, 5]: 2 (20.0) Number of patients (%)
Hyperglycaemia, All [1, 5]: 1 (10.0) Number of patients (%)
Hyperglycaemia, Grade ≥ 3 [1, 5]: 1 (10.0) Number of patients (%)
Hypokalaemia, All [1, 5]: 0 Number of patients (%)
Hypokalaemia, Grade ≥ 3 [1, 5]: 0 Number of patients (%)
Pneumonia, All [1, 5]: 0 Number of patients (%)
Pneumonia, Grade ≥ 3 [1, 5]: 0 Number of patients (%)
Rash macular, All [1, 5]: 1 (10.0) Number of patients (%)
Rash macular, Grade ≥ 3 [1, 5]: 1 (10.0) Number of patients (%)
Rash maculopapular, All [1, 5]: 2 (20.0) Number of patients (%)
Rash maculopapular, Grade ≥ 3 [1, 5]: 2 (20.0) Number of patients (%)
Rash papular, All [1, 5]: 1 (10.0) Number of patients (%)
Rash papular, Grade ≥ 3 [1, 5]: 1 (10.0) Number of patients (%)
Skin discolouration, All [1, 5]: 0 Number of patients (%)
Skin discolouration, Grade ≥ 3 [1, 5]: 0 Number of patients (%)
Plasma glucose during the fasted period ([1]; up to 4 h post-dose): no indication of glucose elevation
Changes in ECG findings, vital signs or physical examinations [2]: no clinically significant changes
Patients with serious AEs (SAEs) ([2]; 7 of 18 patients, in two the events occurred before start of treatment): 38.9%
Plasma glucose (with plasma insulin and C-peptide) ([2]; majority of patients, similar for tablet and capsule): Elevations in plasma glucose
Intra-patient variability for AUCτ ([3]; Part A, estimated): 20%
Intra-patient variability for Cmax ([3]; Part A, estimated): 22%
Intra-subject variability in AUCτ and Cmax ([3]; Parts A and B): around 20 % CV

Reference: paper PMC5907623 (Cancer Chemotherapy and Pharmacology, 2018)
